Drawing on the supplement of paper PMC10307832, this text covers relative viability for seven cell lines.

Common to all, as to assay: relative viability (nuclei count vs DMSO), 5 days (fraction); higher = more cells survive
Compound in assay [1]: CNC(=O)c1cc(Oc2ccc(NC(=O)Nc3ccc(Cl)c(C(F)(F)F)c3)cc2)ccn1 [Sorafenib] + CC(=O)Nc1cccc(-n2c(=O)n(C3CC3)c(=O)c3c(Nc4ccc(I)cc4F)n(C)c(=O)c(C)c32)c1 [Trametinib] (partner 0.02 µM)
Put shortly: (§1)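 Lung cancer cell lines in 1536-well plates got either a single drug or a fixed anchor-drug dose together with five library-drug doses (not always all listed) in √10 steps, by pin tool, on the day after seeding. Nuclei were counted after 5 days, and relative viability is the treated-to-vehicle ratio of nuclei counts. Values are medians of duplicate plates.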

Compound in assay [2]: CNC(=O)c1cc(Oc2ccc(NC(=O)Nc3ccc(Cl)c(C(F)(F)F)c3)cc2)ccn1 [Sorafenib] + CCNC(=O)c1noc(-c2cc(C(C)C)c(O)cc2O)c1-c1ccc(CN2CCOCC2)cc1 [Luminespib] (partner 0.01 µM)
A digest of the protocol: as §1

Compound in assay [3]: CNC(=O)c1cc(Oc2ccc(NC(=O)Nc3ccc(Cl)c(C(F)(F)F)c3)cc2)ccn1 [Sorafenib] + COc1cccc2cc(-c3nc([C@H]4CC[C@H](C(=O)O)CC4)n4ncnc(N)c34)[nH]c12 [OSI-027] (partner 0.5 µM)
A digest of the protocol:
as §1

Compound in assay [4]: CNC(=O)c1cc(Oc2ccc(NC(=O)Nc3ccc(Cl)c(C(F)(F)F)c3)cc2)ccn1 [Sorafenib] + Cc1nc(Nc2ncc(C(=O)Nc3c(C)cccc3Cl)s2)cc(N2CCN(CCO)CC2)n1 [Dasatinib] (partner 0.075 µM)
Put shortly: as §1

Compound in assay [5]: CNC(=O)c1cc(Oc2ccc(NC(=O)Nc3ccc(Cl)c(C(F)(F)F)c3)cc2)ccn1 [Sorafenib] + N=C(N)NC(=N)NCCc1ccccc1 [Phenformin] (partner 250 µM)
Put shortly:
as §1

Regarding PC-14, the relative viability in assay [1] (first compound 0.08 µM) stood at 0.883; in assay [1] (first compound 0.253 µM), 0.694; in assay [1] (first compound 2.53 µM), 0.567; in assay [1] (first compound 8 µM) it was 0.158; in assay [2] (first compound 0.08 µM), 0.138; in assay [2] (first compound 0.253 µM) it was 0.138. Further, the relative viability in assay [2] (first compound 2.53 µM) came to 0.19; in assay [2] (first compound 8 µM), 0.138; in assay [3] (first compound 0.08 µM) it was 0.96; in assay [3] (first compound 2.53 µM), 0.745; in assay [3] (first compound 8 µM), 0.321; in assay [4] (first compound 0.08 µM) it was 0.302. Also, the relative viability in assay [4] (first compound 0.253 µM) stood at 0.256; in assay [4] (first compound 2.53 µM), 0.276; in assay [4] (first compound 8 µM) it was 0.185; in assay [5] (first compound 0.08 µM) it was 0.632; in assay [5] (first compound 0.253 µM), 0.429; in assay [5] (first compound 2.53 µM) it was 0.696. Further, the relative viability in assay [5] (first compound 8 µM) is 0.591.

With RERF-LC-KJ, the relative viability worked out at 0.753 in assay [1] (first compound 0.08 µM); 0.86 in assay [1] (first compound 2.53 µM); 0.65 in assay [1] (first compound 8 µM); 1.2 in assay [2] (first compound 0.08 µM); 1.26 in assay [2] (first compound 0.253 µM); 1.24 in assay [2] (first compound 2.53 µM). For the same cell line, the relative viability in assay [2] (first compound 8 µM) turned out to be 0.404; in assay [3] (first compound 0.08 µM) it was 0.601; in assay [3] (first compound 0.253 µM) it was 0.502; in assay [3] (first compound 2.53 µM), 0.649; in assay [3] (first compound 8 µM), 0.397; in assay [4] (first compound 0.08 µM) it was 0.967. Also, the relative viability turned out to be 0.668 in assay [4] (first compound 0.253 µM); 0.77 in assay [4] (first compound 2.53 µM); 0.401 in assay [4] (first compound 8 µM); 0.437 in assay [5] (first compound 0.08 µM); 0.435 in assay [5] (first compound 0.253 µM); 0.463 in assay [5] (first compound 2.53 µM). Moreover, the relative viability in assay [5] (first compound 8 µM) amounted to 0.394.

For SK-LU-1, the relative viability in assay [1] (first compound 0.08 µM) is 0.726; in assay [1] (first compound 0.253 µM) it was 0.44; in assay [1] (first compound 2.53 µM), 0.302; in assay [1] (first compound 8 µM) it was 0.234; in assay [2] (first compound 0.08 µM), 0.181; in assay [2] (first compound 0.253 µM), 0.181. The relative viability in assay [2] (first compound 2.53 µM) stood at 0.2; in assay [2] (first compound 8 µM) it was 0.179; in assay [3] (first compound 0.08 µM), 0.41; in assay [3] (first compound 0.253 µM), 0.283; in assay [3] (first compound 2.53 µM), 0.345; in assay [3] (first compound 8 µM) it was 0.227. Further, the relative viability in assay [4] (first compound 0.08 µM) was 0.197; in assay [4] (first compound 0.253 µM), 0.184; in assay [4] (first compound 2.53 µM), 0.196; in assay [4] (first compound 8 µM), 0.185; in assay [5] (first compound 0.08 µM) it was 0.641; in assay [5] (first compound 0.253 µM), 0.484. The relative viability in assay [5] (first compound 2.53 µM) was 0.487; in assay [5] (first compound 8 µM), 0.195.

SK-MES-1: the relative viability in assay [1] (first compound 0.08 µM) was 0.627; in assay [1] (first compound 0.253 µM) it was 0.614; in assay [1] (first compound 2.53 µM) it was 0.315; in assay [1] (first compound 8 µM) it was 0.231; in assay [2] (first compound 0.08 µM) it was 0.752; in assay [2] (first compound 0.253 µM) it was 0.69. In addition, the relative viability is 0.791 in assay [2] (first compound 2.53 µM); 0.412 in assay [2] (first compound 8 µM); 0.604 in assay [3] (first compound 0.08 µM); 0.548 in assay [3] (first compound 0.253 µM); 0.5 in assay [3] (first compound 2.53 µM); 0.454 in assay [3] (first compound 8 µM). Further, the relative viability in assay [4] (first compound 0.08 µM) was 0.434; in assay [4] (first compound 0.253 µM), 0.276; in assay [4] (first compound 2.53 µM), 0.41; in assay [4] (first compound 8 µM), 0.273; in assay [5] (first compound 0.08 µM), 0.689; in assay [5] (first compound 0.253 µM) it was 0.62. Also, the relative viability in assay [5] (first compound 2.53 µM) was found to be 0.596; in assay [5] (first compound 8 µM) it was 0.424.

Consider SW 900, for which the relative viability in assay [1] (first compound 0.253 µM) worked out at 0.792; in assay [1] (first compound 2.53 µM), 0.934; in assay [1] (first compound 8 µM), 0.719; in assay [2] (first compound 0.08 µM), 0.147; in assay [2] (first compound 0.253 µM), 0.16; in assay [2] (first compound 2.53 µM), 0.171. The relative viability in assay [2] (first compound 8 µM) came out at 0.165; in assay [3] (first compound 0.08 µM) it was 0.842; in assay [3] (first compound 0.253 µM), 0.427; in assay [3] (first compound 2.53 µM), 0.579; in assay [3] (first compound 8 µM) it was 0.49; in assay [4] (first compound 0.08 µM), 0.544. In addition, the relative viability in assay [4] (first compound 0.253 µM) amounted to 0.481; in assay [4] (first compound 2.53 µM) it was 0.545; in assay [4] (first compound 8 µM), 0.343; in assay [5] (first compound 0.08 µM), 0.871; in assay [5] (first compound 0.253 µM), 0.602; in assay [5] (first compound 2.53 µM), 0.461. Also, in assay [5] (first compound 8 µM), the relative viability turned out to be 0.22.

For the cell line SW 1573, the relative viability amounted to 0.549 in assay [1] (first compound 0.08 µM); 0.608 in assay [1] (first compound 0.253 µM); 0.337 in assay [1] (first compound 2.53 µM); 0.131 in assay [1] (first compound 8 µM); 0.239 in assay [2] (first compound 0.08 µM); 0.255 in assay [2] (first compound 0.253 µM). For the same cell line, the relative viability in assay [2] (first compound 2.53 µM) stood at 0.166; in assay [2] (first compound 8 µM), 0.117; in assay [3] (first compound 0.08 µM), 0.79; in assay [3] (first compound 0.253 µM) it was 0.517; in assay [3] (first compound 2.53 µM), 0.553; in assay [3] (first compound 8 µM), 0.21. Moreover, the relative viability in assay [4] (first compound 0.08 µM) worked out at 0.752; in assay [4] (first compound 0.253 µM), 0.38; in assay [4] (first compound 2.53 µM), 0.505; in assay [4] (first compound 8 µM), 0.213; in assay [5] (first compound 0.08 µM), 0.446; in assay [5] (first compound 0.253 µM), 0.403. Also, the relative viability stood at 0.388 in assay [5] (first compound 2.53 µM) and 0.0803 in assay [5] (first compound 8 µM).

Consider UMC-11, for which the relative viability in assay [1] (first compound 0.08 µM) is 0.854; in assay [1] (first compound 0.253 µM), 0.743; in assay [1] (first compound 2.53 µM), 0.639; in assay [1] (first compound 8 µM) it was 0.612; in assay [2] (first compound 0.08 µM), 1.03; in assay [2] (first compound 0.253 µM), 1.03. The relative viability in assay [2] (first compound 2.53 µM) is 1; in assay [2] (first compound 8 µM), 0.182; in assay [3] (first compound 0.08 µM), 0.46; in assay [3] (first compound 0.253 µM), 0.386; in assay [3] (first compound 2.53 µM) it was 0.454; in assay [3] (first compound 8 µM), 0.266. Besides, the relative viability in assay [4] (first compound 0.08 µM) turned out to be 0.509; in assay [4] (first compound 0.253 µM) it was 0.396; in assay [4] (first compound 2.53 µM) it was 0.357; in assay [4] (first compound 8 µM), 0.205; in assay [5] (first compound 0.08 µM), 0.316; in assay [5] (first compound 0.253 µM) it was 0.301. Also, the relative viability in assay [5] (first compound 2.53 µM) worked out at 0.24; in assay [5] (first compound 8 µM), 0.155.
